Assays:
A549/ATCC = test: SRB anticancer assay, non-small lung; type: cell-based, human; set-up: Log10GI50: unit not given here
NCI-H522 = test: SRB anticancer assay, non-small lung; type: cell-based, human; set-up: Log10GI50: unit not given here
HT29 = test: SRB anticancer assay, colon; type: cell-based, human; conditions: Homo sapiens, HT-29; HT29, 48 h
SF-295 = test: SRB anticancer assay, CNS; type: cell-based, human; set-up: Log10GI50: unit not given here
SNB-75 = test: SRB anticancer assay, CNS; type: cell-based, human; set-up: Log10GI50: unit not given here
786-0 = test: SRB anticancer assay, renal; type: cell-based, human
TK-10 = test: SRB anticancer assay, renal; type: cell-based, human; conditions: Homo sapiens, TK-10, 48 h
PC-3 = test: SRB anticancer assay, prostate; type: cell-based, human; set-up: Log10GI50: unit not given here
DU-145 = test: SRB anticancer assay, prostate; type: cell-based, human; set-up: Log10GI50: unit not given here
MCF7 = test: SRB anticancer assay, breast; type: cell-based, human; conditions: Homo sapiens, MCF7, 48 h
HS 578T = test: SRB anticancer assay, breast; type: cell-based, human; conditions: Homo sapiens, 48 h
LOX IMVI = test: SRB anticancer assay, melanoma; type: cell-based, human; set-up: Log10GI50: unit not given here
MALME-3M = test: SRB anticancer assay, melanoma; type: cell-based, human; set-up: Log10GI50: unit not given here
SK-MEL-2 = test: SRB anticancer assay, melanoma; type: cell-based, human
UACC-62 = test: SRB anticancer assay, melanoma; type: cell-based, human
Breast cancer cell lines = test: SRB anticancer assay, panel result; type: cell-based, human
In short: (§1)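 Sulforhodamine B protein staining after 48 h continuous drug exposure gave growth/viability readings. Dose–response covered a minimum of five 10-fold-spaced concentrations across sixty human cancer lines from nine tumour types.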

CNS cancer cell lines = test: SRB anticancer assay, panel result; type: cell-based, human
In short: as §1

Colon cancer cell lines = test: SRB anticancer assay, panel result; type: cell-based, human
In short: as §1

[1] = system: Leukemia cancer cell lines; test: SRB anticancer assay, panel result; type: cell-based, human
In short: as §1

[2] = system: Melanoma cancer cell lines; test: SRB anticancer assay, panel result; type: cell-based, human
In short: as §1

[3] = system: Non-small cell lung cancer cell lines; test: SRB anticancer assay, panel result; type: cell-based, human
In short: as §1

[4] = system: Ovarian cancer cell lines; test: SRB anticancer assay, panel result; type: cell-based, human
In short: as §1

[5] = system: Prostate cancer cell lines; test: SRB anticancer assay, panel result; type: cell-based, human
In short: as §1

Renal cancer cell lines = test: SRB anticancer assay, panel result; type: cell-based, human
In short: as §1

K562 (Leukemia) cells = test: Cell cycle distribution by flow cytometry; type: cell-based
In short: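 Compound-treated K562 cells analysed for cell-cycle distribution by flow cytometry; values given as % of cells.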

SMILES: COc1cc(-c2cncn2-c2ccc(-c3nc4ccc(F)cc4s3)cc2)ccc1F [Compound 4c, 6-Fluoro-2-(4-(5-(4-fluoro-3-methoxyphenyl)-1H-imidazol-1-yl)phenyl)benzo[d]thiazole]
- GI50 (A549/ATCC; Homo sapiens, 48 h): 12.3 µM
- Log10GI50 (A549/ATCC; present compounds): −4.91
- GI50 (NCI-H522; Homo sapiens, NCI-H522, 48 h): 9.9 µM
- Log10GI50 (NCI-H522; NCI-H522, present compounds): −5.00
- GI50 (HT29): 10.8 µM
- GI50 (SF-295; Homo sapiens, SF-295, 48 h): 75.9 µM
- Log10GI50 (SF-295; SF-295, present compounds): −4.90
- GI50 (SNB-75; Homo sapiens, SNB-75, 48 h): 12.6 µM
- Log10GI50 (SNB-75; SNB-75, present compounds): −4.69
- Log10GI50 (786-0; 786-0, present compounds): −4.44 log10 M
- GI50 (786-0; Homo sapiens, 786-0, 48 h): 36.1 µM
- GI50 (TK-10): 38.8 µM
- GI50 (PC-3; Homo sapiens, PC-3, 48 h): 3.47 µM
- Log10GI50 (PC-3; PC-3, present compounds): −5.46
- Log10GI50 (DU-145; DU-145, present compounds): −4.85
- GI50 (DU-145; Homo sapiens, DU-145, 48 h): 14.3 µM
- GI50 (MCF7): 23.5 µM
- GI50 (HS 578T): 11.5 µM
- GI50 (LOX IMVI; Homo sapiens, 48 h): 35.9 µM
- Log10GI50 (LOX IMVI; present compounds): −4.44
- GI50 (MALME-3M; Homo sapiens, Malme-3M, 48 h): 11.1 µM
- Log10GI50 (MALME-3M; MALME-3M, present compounds): −4.95
- GI50 (SK-MEL-2; Homo sapiens, SK-MEL-2, 48 h): 39.7 µM
- Log10GI50 (SK-MEL-2; SK-MEL-2, present compounds): −4.40 M
- GI50 (UACC-62; Homo sapiens, UACC-62, 48 h): 8.67 µM
- Log10GI50 (UACC-62; UACC-62, present compounds): −5.06 log10 M
- mean graph midpoint value (MG_MID) of Log10 GI50 (Breast cancer cell lines; Breast panel): −4.82 mol/L
- mean graph midpoint value (MG_MID) of log10 TGI (Breast cancer cell lines; Breast panel, total inhibition of net cell growth): −4.02
- CC50 (Breast cancer cell lines; Homo sapiens, Breast panel, 50% net cell death, read-out: mean graph midpoint value (MG_MID) of Log10 LC50 (converted)): > 100 µM
- GI50 (Breast cancer cell lines; Homo sapiens, six breast cancer cell lines, exposure at least 48 h, read-out: GI50, range over the panel): 7.98 to 32.2 µM
- mean graph midpoint value (MG_MID) of Log10 GI50 (CNS cancer cell lines; CNS panel): −4.52 mol/L
- mean graph midpoint value (MG_MID) of log10 TGI (CNS cancer cell lines; CNS panel, total inhibition of net cell growth): −4.05
- CC50 (CNS cancer cell lines; Homo sapiens, CNS panel, 50% net cell death, read-out: mean graph midpoint value (MG_MID) of Log10 LC50 (converted)): > 100 µM
- GI50 (CNS cancer cell lines; Homo sapiens, six CNS cancer cell lines, exposure at least 48 h, read-out: GI50, range over the panel): 12.6 to 75.9 µM
- mean graph midpoint value (MG_MID) of Log10 GI50 (Colon cancer cell lines; Colon panel): −4.71 log10(mol/L)
- mean graph midpoint value (MG_MID) of log10 TGI (Colon cancer cell lines; Colon panel, total inhibition of net cell growth): −4.06
- LC50 (Colon cancer cell lines; Homo sapiens, Colon panel, 50% net cell death, read-out: mean graph midpoint value (MG_MID) of Log10 LC50 (converted)): > 100 µM
- GI50 (Colon cancer cell lines; Homo sapiens, seven colon cancer cell lines, exposure at least 48 h, read-out: GI50, range over the panel): 4.36 to 82.3 µM
- LC50 ([1]; Homo sapiens, Leukemia panel, 50% net cell death, read-out: mean graph midpoint value (MG_MID) of Log10 LC50 (converted)): > 100 µM
- GI50 ([1]; Homo sapiens, six leukemia cancer cell lines, exposure at least 48 h, read-out: GI50, range over the panel): 2.5 to 6.92 µM
- mean graph midpoint value (MG_MID) of Log10 GI50 ([1]; Leukemia panel): −5.38 log10(mol/L)
- mean graph midpoint value (MG_MID) of log10 TGI ([1]; Leukemia panel, total inhibition of net cell growth): −4.19
- LC50 ([2]; Homo sapiens, Melanoma panel, 50% net cell death, read-out: mean graph midpoint value (MG_MID) of Log10 LC50 (converted)): > 100 µM
- GI50 ([2]; Homo sapiens, nine melanoma cancer cell lines, exposure at least 48 h, read-out: GI50, range over the panel): 4.11 to 39.7 µM
- mean graph midpoint value (MG_MID) of Log10 GI50 ([2]; Melanoma panel): −4.82 log10(mol/L)
- mean graph midpoint value (MG_MID) of log10 TGI ([2]; Melanoma panel, total inhibition of net cell growth): >−4.0
- LC50 ([3]; Homo sapiens, Non-small cell lung panel, 50% net cell death, read-out: mean graph midpoint value (MG_MID) of Log10 LC50 (converted)): 93.3 µM
- GI50 ([3]; Homo sapiens, nine Non-small cell lung cancer cell lines, exposure at least 48 h, read-out: GI50, range over the panel): 5.47 to 49.3 µM
- mean graph midpoint value (MG_MID) of Log10 GI50 ([3]; Non-small cell lung panel): −4.83 log10(M)
- LC50 ([4]; Homo sapiens, Ovarian panel, 50% net cell death, read-out: mean graph midpoint value (MG_MID) of Log10 LC50 (converted)): > 100 µM
- GI50 ([4]; Homo sapiens, seven ovarian cancer cell lines, exposure at least 48 h, read-out: GI50, range over the panel): 5.71 to 30.6 µM
- mean graph midpoint value (MG_MID) of Log10 GI50 ([4]; Ovarian panel): −4.62 mol/L
- mean graph midpoint value (MG_MID) of log10 TGI ([4]; Ovarian panel, total inhibition of net cell growth): −4.11
- LC50 ([5]; Homo sapiens, Prostate panel, 50% net cell death, read-out: mean graph midpoint value (MG_MID) of Log10 LC50 (converted)): > 100 µM
- GI50 ([5]; Homo sapiens, two prostate cancer cell lines (PC-3, DU-145), exposure at least 48 h, read-out: GI50, range over the panel): 3.47 to 14.3 µM
- mean graph midpoint value (MG_MID) of Log10 GI50 ([5]; Prostate panel): −5.16 mol/L
- mean graph midpoint value (MG_MID) of log10 TGI ([5]; Prostate panel, total inhibition of net cell growth): −4.06
- CC50 (Renal cancer cell lines; Homo sapiens, Renal panel, 50% net cell death, read-out: mean graph midpoint value (MG_MID) of Log10 LC50 (converted)): 95.5 µM
- GI50 (Renal cancer cell lines; Homo sapiens, eight renal cancer cell lines, exposure at least 48 h, read-out: GI50, range over the panel): 0.0432 to 38.8 µM
- mean graph midpoint value (MG_MID) of Log10 GI50 (Renal cancer cell lines; Renal panel): −4.98 log10(mol/L)
- mean graph midpoint value (MG_MID) of log10 TGI (Renal cancer cell lines; Renal panel, total inhibition of net cell growth): −4.11
- cells in G2/M phase (K562 (Leukemia) cells): 14%
